The term IC50 denotes the concentration at which inhibition is half-maximal. The low end stands for higher potency, the high end for lower potency.

This experiment concerns the target URAT-1 transporter (Homo sapiens (Human), UniProt Q96S37). The experiment can be described thus: URAT-1 inhibitor activity: [14C]-uric acid uptake in CHO-URAT1(L)GFP#8 (CHO#8) cells, scintillation proximity. The format is cell-based. The conditions noted are these: inhibition of [14C]-uric acid (30 nM) uptake into CHO#8 cells; compound 0 to 10 μM; 4 parameter logistic fit. In short, it runs like this: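 CHO cells stably expressing human URAT1 long isoform–eGFP fusion, pre-incubated 1 h in chloride-containing buffer pH 7.4, then given 30 nM [14C]-uric acid with compound (0–10 μM, 0.25% DMSO) in chloride-free gluconate buffer pH 7.4. Uptake measured by scintillation proximity on Cytostar plates.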

Structures are written as SMILES.

Sequence of URAT-1 transporter (Q96S37 other isoform, or with tags, fused parts or gaps): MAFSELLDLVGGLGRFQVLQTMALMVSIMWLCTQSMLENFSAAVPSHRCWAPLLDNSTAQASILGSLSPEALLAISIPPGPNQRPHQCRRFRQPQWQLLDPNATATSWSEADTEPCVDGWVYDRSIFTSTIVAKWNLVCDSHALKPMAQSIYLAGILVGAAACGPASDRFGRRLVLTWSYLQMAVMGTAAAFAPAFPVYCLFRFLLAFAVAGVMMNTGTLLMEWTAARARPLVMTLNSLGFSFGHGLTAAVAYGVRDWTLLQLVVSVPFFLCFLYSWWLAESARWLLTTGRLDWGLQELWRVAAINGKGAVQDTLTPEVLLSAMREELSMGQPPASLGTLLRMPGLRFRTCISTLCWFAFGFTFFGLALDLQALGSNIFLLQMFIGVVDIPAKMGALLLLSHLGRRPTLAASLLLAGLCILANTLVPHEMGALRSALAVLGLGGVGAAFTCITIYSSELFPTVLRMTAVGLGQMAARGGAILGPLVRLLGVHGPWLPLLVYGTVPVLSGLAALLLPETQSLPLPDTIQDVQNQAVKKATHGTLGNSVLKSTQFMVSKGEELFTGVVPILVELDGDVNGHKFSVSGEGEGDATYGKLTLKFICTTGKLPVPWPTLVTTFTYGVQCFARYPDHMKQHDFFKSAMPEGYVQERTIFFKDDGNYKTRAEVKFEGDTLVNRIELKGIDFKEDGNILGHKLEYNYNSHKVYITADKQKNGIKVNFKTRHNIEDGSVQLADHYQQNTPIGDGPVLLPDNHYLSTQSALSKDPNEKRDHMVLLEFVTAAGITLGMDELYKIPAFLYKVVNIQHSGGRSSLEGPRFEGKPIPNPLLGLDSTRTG

Take `CC(C)COc1ccc(Oc2ccc(S(=O)(=O)Nc3ccc(F)cn3)cc2C#N)cn1` [Example 121, 3-cyano-N-(5-fluoropyridin-2-yl)-4-{[6-(2-methylpropoxy)pyridin-3-yl]oxy}benzenesulfonamide]: the IC50 is greater than 10000 nM.

Take `N#Cc1cc(S(=O)(=O)Nc2ccc(F)cn2)ccc1Oc1cc(F)cc(Cl)c1` [Example 28, 4-(3-chloro-5-fluorophenoxy)-3-cyano-N-(5-fluoropyridin-2-yl)benzenesulfonamide]: half-maximal inhibition (IC50) was put at 92 nM.

The compound `COc1ccc(Oc2ccc(S(=O)(=O)Nc3ccc(F)cn3)cc2C#N)cc1F` [Example 132, 3-cyano-4-(3-fluoro-4-methoxyphenoxy)-N-(5-fluoropyridin-2-yl)benzenesulfonamide] yielded an IC50 of 38 nM.

The compound `N#Cc1cc(S(=O)(=O)Nc2ccccn2)ccc1Oc1ccc(Cl)cc1I` [Example 80, 4-(4-chloro-2-iodophenoxy)-3-cyano-N-(pyridin-2-yl)benzenesulfonamide] returned an IC50 of 728 nM.

`Cc1cc(Oc2ccc(S(=O)(=O)Nc3ccc(F)cn3)cc2C#N)c(C(C)C)cc1Cl` [Example 133, 4-[4-chloro-5-methyl-2-(propan-2-yl)phenoxy]-3-cyano-N-(5-fluoropyridin-2-yl)benzenesulfonamide] showed an IC50 of 793 nM.

Compound `N#Cc1ccc(Oc2ccc(S(=O)(=O)Nc3ccc(F)cn3)c(F)c2)cc1F` [Example 99, 4-(4-cyano-3-fluorophenoxy)-2-fluoro-N-(5-fluoropyridin-2-yl)benzenesulfonamide] showed an IC50 of 29 nM.

Regarding `CC(C)(C)c1cccc(Oc2ccc(S(=O)(=O)Nc3ccc(F)cn3)cc2C#N)c1` [Example 129, 4-(3-tert-butylphenoxy)-3-cyano-N-(5-fluoropyridin-2-yl)benzenesulfonamide], the IC50 was greater than 10000 nM.

As to `N#Cc1cc(S(=O)(=O)Nc2cccnn2)ccc1Oc1ccc(Cl)cc1OC(F)F` [Example 86, 4-[4-chloro-2-(difluoromethoxy)phenoxy]-3-cyano-N-(pyridazin-3-yl)benzenesulfonamide], the IC50 was greater than 5330 nM.

`Cc1ccc(Oc2ccc(S(=O)(=O)Nc3ccc(F)cn3)cc2C#N)cc1` [Example 191, 3-cyano-N-(5-fluoropyridin-2-yl)-4-(4-methylphenoxy)benzenesulfonamide]: the IC50 was found to be 1990 nM.

`N#Cc1cc(Oc2cc(F)c(S(=O)(=O)Nc3ncccn3)cc2Cl)ccc1F` [Example 225, 5-chloro-4-(3-cyano-4-fluorophenoxy)-2-fluoro-N-(pyrimidin-2-yl)benzenesulfonamide] gave an IC50 of 2330 nM.

Compound `CC(C)c1ccc(Oc2ccc(S(=O)(=O)Nc3ccc(F)cn3)cc2C#N)cc1` [Example 126, 3-cyano-N-(5-fluoropyridin-2-yl)-4-[4-(propan-2-yl)phenoxy]benzenesulfonamide] showed an IC50 greater than 10000 nM.

`N#Cc1cc(S(=O)(=O)Nc2ccc(F)cn2)ccc1Oc1cccc(Cl)c1` [Example 25, 4-(3-chlorophenoxy)-3-cyano-N-(5-fluoropyridin-2-yl)benzenesulfonamide] yielded an IC50 of 86 nM.

Regarding `Cc1ccc(Oc2ccc(S(=O)(=O)Nc3ccc(F)cn3)cc2C#N)cc1C#N` [Example 59, 3-cyano-4-(3-cyano-4-methylphenoxy)-N-(5-fluoropyridin-2-yl)benzenesulfonamide], the IC50 was greater than 10000 nM.

For `Cc1cc(Oc2ccc(S(=O)(=O)Nc3ccc(F)cn3)cc2C#N)cc(C(C)C)c1` [Example 105, 3-cyano-N-(5-fluoropyridin-2-yl)-4-[3-methyl-5-(propan-2-yl)phenoxy]benzenesulfonamide], the IC50 is greater than 10000 nM.

`Cc1ccc(F)cc1Oc1ccc(S(=O)(=O)Nc2ccc(F)cn2)cc1C#N` [Example 21, 3-cyano-4-(5-fluoro-2-methylphenoxy)-N-(5-fluoropyridin-2-yl)benzenesulfonamide] came in with an IC50 of 84 nM.

The compound `N#Cc1cc(S(=O)(=O)Nc2ccc(F)cn2)ccc1Oc1ccccn1` [Example 187, 3-cyano-N-(5-fluoropyridin-2-yl)-4-(pyridin-2-yloxy)benzenesulfonamide] displayed an IC50 greater than 10000 nM.

For the compound `N#Cc1cc(Oc2cc(F)c(S(=O)(=O)Nc3ncc(F)cn3)cc2Cl)ccc1F` [compound 214], the IC50 is greater than 1150 nM.

On to `N#Cc1cc(S(=O)(=O)Nc2ccc(F)cn2)ccc1Oc1ccccc1C(F)(F)F` [Example 51, 3-cyano-N-(5-fluoropyridin-2-yl)-4-[2-(trifluoromethyl)phenoxy]benzenesulfonamide], for which the IC50 is 171 nM.

Compound `Cc1ccc(Oc2ccc(S(=O)(=O)Nc3ccc(F)cn3)cc2C#N)c(F)c1F` [Example 128, 3-cyano-4-(2,3-difluoro-4-methylphenoxy)-N-(5-fluoropyridin-2-yl)benzenesulfonamide] displayed a 50% inhibitory concentration (IC50) greater than 10000 nM.

Regarding `CCN(CC)c1cccc(Oc2ccc(S(=O)(=O)Nc3ccc(F)cn3)cc2C#N)c1` [Example 113, 3-cyano-4-[3-(diethylamino)phenoxy]-N-(5-fluoropyridin-2-yl)benzenesulfonamide], the IC50 was greater than 10000 nM.

As to `COc1cccc(F)c1Oc1ccc(S(=O)(=O)Nc2ccc(F)cn2)cc1C#N` [Example 111, 3-cyano-4-(2-fluoro-6-methoxyphenoxy)-N-(5-fluoropyridin-2-yl)benzenesulfonamide], 74 nM corresponded to half-maximal inhibition (IC50).

`N#Cc1ccc(Oc2ccc(S(=O)(=O)Nc3cccnc3)cc2C#N)cc1Cl` [Example 92, 4-(3-chloro-4-cyanophenoxy)-3-cyano-N-(pyridin-3-yl)benzenesulfonamide] gave an IC50 of 414 nM.

Turning to `N#Cc1ccc(Oc2ccc(S(=O)(=O)Nc3ccncn3)cc2C#N)cc1Cl` [Example 87, 4-(3-chloro-4-cyanophenoxy)-3-cyano-N-(pyrimidin-4-yl)benzenesulfonamide], the IC50 is greater than 7670 nM.

Consider `O=S(=O)(Nc1ncc(F)cn1)c1cc(Cl)c(Oc2ccc(F)c(F)c2)cc1F` [compound 212], for which the IC50 is greater than 10000 nM.

The compound `Cc1cc(Oc2ccc(S(=O)(=O)Nc3ccc(F)cn3)cc2C#N)cc(C)c1Cl` [Example 149, 4-(4-chloro-3,5-dimethylphenoxy)-3-cyano-N-(5-fluoropyridin-2-yl)benzenesulfonamide] gave an IC50 of 95 nM.

`CCc1ccc(Oc2ccc(S(=O)(=O)Nc3ccc(F)cn3)cc2C#N)cc1` [Example 50, 3-cyano-4-(4-ethylphenoxy)-N-(5-fluoropyridin-2-yl)benzenesulfonamide] yielded an IC50 greater than 10000 nM.

Take `Cc1ccc(Cl)c(C)c1Oc1ccc(S(=O)(=O)Nc2ccc(F)cn2)cc1C#N` [Example 169, 4-(3-chloro-2,6-dimethylphenoxy)-3-cyano-N-(5-fluoropyridin-2-yl)benzenesulfonamide]: inhibition was half-maximal at 134 nM (IC50).

`CC(C)Oc1ccc(F)cc1Oc1ccc(S(=O)(=O)Nc2ccc(F)cn2)cc1C#N` [Example 156, 3-cyano-4-[5-fluoro-2-(propan-2-yloxy)phenoxy]-N-(5-fluoropyridin-2-yl)benzenesulfonamide] registered a concentration for half-maximal inhibition (IC50) greater than 10000 nM.

As for `COc1ccc(Oc2ccc(S(=O)(=O)Nc3ccc(F)cn3)cc2C#N)cc1` [Example 188, 3-cyano-N-(5-fluoropyridin-2-yl)-4-(4-methoxyphenoxy)benzenesulfonamide], it took 3740 nM to reach half-maximal inhibition (IC50).

For `N#Cc1ccc(Oc2ccc(S(=O)(=O)Nc3ccc(F)cn3)cc2F)cc1F` [Example 97, 4-(4-cyano-3-fluorophenoxy)-3-fluoro-N-(5-fluoropyridin-2-yl)benzenesulfonamide], the IC50 is greater than 1670 nM.

Take `COc1ccncc1Oc1ccc(S(=O)(=O)Nc2ccc(F)cn2)cc1C#N` [Example 190, 3-cyano-N-(5-fluoropyridin-2-yl)-4-[(4-methoxypyridin-3-yl)oxy]benzenesulfonamide]: the IC50 is greater than 10000 nM.

The compound `CCOc1ncc(Oc2ccc(S(=O)(=O)Nc3ccc(F)cn3)cc2C#N)cc1Cl` [Example 125, 4-[(5-chloro-6-ethoxypyridin-3-yl)oxy]-3-cyano-N-(5-fluoropyridin-2-yl)benzenesulfonamide] displayed an IC50 of 237 nM.

In turn, `N#Cc1cc(S(=O)(=O)Nc2ccc(F)cn2)ccc1Oc1cccc(C(F)(F)F)c1F` [Example 29, 3-cyano-N-(5-fluoropyridin-2-yl)-4-[2-fluoro-3-(trifluoromethyl)phenoxy]benzenesulfonamide] registered an IC50 greater than 10000 nM.

`COc1c(Oc2ccc(S(=O)(=O)Nc3ccc(F)cn3)cc2C#N)ccc(F)c1C` [Example 173, 3-cyano-4-(4-fluoro-2-methoxy-3-methylphenoxy)-N-(5-fluoropyridin-2-yl)benzenesulfonamide]: the midpoint of inhibition, the IC50, lay at 131 nM.

Compound `N#Cc1ccc(Oc2ccc(S(=O)(=O)Nc3ccncc3)cc2C#N)cc1Cl` [Example 100, 4-(3-chloro-4-cyanophenoxy)-3-cyano-N-(pyridin-4-yl)benzenesulfonamide] gave an IC50 greater than 10000 nM.

The compound `COc1cc(F)c(F)cc1Oc1ccc(S(=O)(=O)Nc2ccc(F)cn2)cc1C#N` [Example 144, 3-cyano-4-(4,5-difluoro-2-methoxyphenoxy)-N-(5-fluoropyridin-2-yl)benzenesulfonamide] came in with an IC50 of 40 nM.

For `N#Cc1cc(S(=O)(=O)Nc2ccc(F)cn2)ccc1Oc1cccc(C2CC2)c1` [Example 118, 3-cyano-4-(3-cyclopropylphenoxy)-N-(5-fluoropyridin-2-yl)benzenesulfonamide], the IC50 is greater than 10000 nM.

With `N#Cc1cc(S(=O)(=O)Nc2ccc(F)cn2)ccc1Oc1ccc(Cl)c(F)c1` [Example 55, 4-(4-chloro-3-fluorophenoxy)-3-cyano-N-(5-fluoropyridin-2-yl)benzenesulfonamide], the IC50 came out at 129 nM.

`Cc1ccc(Oc2ccc(S(=O)(=O)Nc3ccc(F)cn3)cc2C#N)c(Cl)c1C` [Example 178, 4-(2-chloro-3,4-dimethylphenoxy)-3-cyano-N-(5-fluoropyridin-2-yl)benzenesulfonamide] displayed an IC50 greater than 10000 nM.

In the case of `COc1ccc(Oc2ccc(S(=O)(=O)Nc3ccc(F)cn3)cc2C#N)c(C)c1` [Example 201, 3-cyano-N-(5-fluoropyridin-2-yl)-4-(4-methoxy-2-methylphenoxy)benzenesulfonamide], it took 74 nM to reach half-maximal inhibition (IC50).
